The term IC50 denotes the midpoint of a concentration-inhibition curve. A higher IC50 goes with weaker potency.

One test deals with PC3 cells. As to the kind of experiment: NAMPT Cell Proliferation Assay. It is filed as cell-based. The note with it: 5 days incubation, cell viability by Cell Titer Glo. How it is done: NAMPT Cell Proliferation Assay
PC3 cells were seeded in 96-well black plates (Corning #3904) at 500 cells/well in 90 μl of RPMI media containing 10% heat-inactivated FBS and incubated overnight at 37° C. and 5% CO2 to allow cells to attach to wells. The following day, test compounds were serially diluted in neat DMSO to 1000× final concentrations prior to dilution with RPMI media to 10× and 1% DMSO. Ten μL of the 10× compounds were then transferred to wells containing cells to produce a dose response of 10-fold dilutions from 10 μM to 1×10^−5 μM. Cells were incubated for 5 days at 37° C. and 5% CO2, then cell viability was measured using Cell Titer Glo reagent (Promega #G7571). Percent inhibition values were calculated and fitted to a sigmoidal dose response curves using Assay Explorer software to determine IC50s.
In general terms: Cellular ATP, detected with luciferase, serves as a proxy for viable cell number.
`O=C(NCc1ccn2ccnc2c1)c1ccc(C2CCN(C(=O)/C=C/c3ccccn3)CC2)cc1` [Example 991, -(imidazo[1,2-a]pyridin-7-ylmethyl)-4-{1-[(2E)-3-(pyridin-2-yl)prop-2-enoyl]piperidin-4-yl}benzamide] displayed an IC50 of 66.9 nM.

The same test, now with this note: Homo sapiens, PC-3, 120 h, 5 days incubation, cell viability by Cell Titer Glo.
`CCc1c(C(=O)N2CCC(c3ccc(C(=O)NCc4ccn5ccnc5c4)cc3)CC2)nnn1CC` [Example 1091, 4-{1-[(1,5-diethyl-1H-1,2,3-triazol-4-yl)carbonyl]piperidin-4-yl}-N-(imidazo[1,2-a]pyridin-7-ylmethyl)benzamide] gave a half-inhibitory concentration (IC50) of 4.19 nM.

In turn, `CC(C)c1ncncc1C(=O)N1CCC(c2ccc(NC(=O)NCc3ccn4ccnc4c3)cc2)CC1` [Example 1140, 1-(imidazo[1,2-a]pyridin-7-ylmethyl)-3-[4-(1-{[4-(propan-2-yl)pyrimidin-5-yl]carbonyl}piperidin-4-yl)phenyl]urea] yielded an IC50 of 5.84 nM.

The molecule `O=C(NCc1ccn2ccnc2c1)c1ccc(C2=CCN(c3cc(C(F)(F)F)ncn3)CC2)cc1` [Example 1156, N-(imidazo[1,2-a]pyridin-7-ylmethyl)-4-{1-[6-(trifluoromethyl)pyrimidin-4-yl]-1,2,3,6-tetrahydropyridin-4-yl}benzamide] registered a 50% inhibitory concentration (IC50) of 35.4 nM.

Take `Cn1ncc2ccc(C(=O)N3CCC(c4ccc(NC(=O)NCc5ccn6ccnc6c5)cc4)CC3)cc21` [Example 1123, 1-(imidazo[1,2-a]pyridin-7-ylmethyl)-3-(4-{1-[(1-methyl-1H-indazol-6-yl)carbonyl]piperidin-4-yl}phenyl)urea]: half-maximal inhibition (IC50) was put at 7.11 nM.

`Cn1ncc2ccc(C(=O)N3CCC(c4ccc(C(=O)NCc5ccn6ccnc6c5)cc4)CC3)cc21` [Example 1086, N-(imidazo[1,2-a]pyridin-7-ylmethyl)-4-{1-[(1-methyl-1H-indazol-6-yl)carbonyl]piperidin-4-yl}benzamide] showed a half-inhibitory concentration (IC50) of 9.93 nM.

The molecule `O=C(NCc1ccn2ccnc2c1)Nc1ccc(C2CCN(C(=O)c3cncc4ccccc34)CC2)cc1` [Example 1027, 1-(imidazo[1,2-a]pyridin-7-ylmethyl)-3-{4-[1-(isoquinolin-4-ylcarbonyl)piperidin-4-yl]phenyl}urea] showed an IC50 of 2.28 nM.

Molecule `CC(C)C(=O)N1CCC(c2ccc(C(=O)NCc3cn4ccnc4cn3)s2)CC1` [Example 837, N-(imidazo[1,2-a]pyrazin-6-ylmethyl)-5-[1-(2-methylpropanoyl)piperidin-4-yl]thiophene-2-carboxamide] yielded an IC50 of 2.77 nM.

`CCn1cc(C(=O)N2CCC(c3ccc(NC(=O)NCc4ccn5ccnc5c4)cc3)CC2)c(C(C)C)n1` [Example 1134, 1-[4-(1-{[1-ethyl-3-(propan-2-yl)-1H-pyrazol-4-yl]carbonyl}piperidin-4-yl)phenyl]-3-(imidazo[1,2-a]pyridin-7-ylmethyl)urea]: the IC50 came to 5.51 nM.

With `O=C(NCc1ccn2ccnc2c1)c1ccc(NC(=O)c2ccc(F)cc2F)cc1` [Example 873, 2,4-difluoro-N-{4-[(imidazo[1,2-a]pyridin-7-ylmethyl)carbamoyl]phenyl}benzamide], the IC50 was determined as 3870 nM.

`O=C(NCc1ccn2ccnc2c1)c1ccc(C2CCN(C(=O)C3CC=CCC3)CC2)cc1` (stereo not drawn) [Example 920, 4-[1-(cyclohex-3-en-1-ylcarbonyl)piperidin-4-yl]-N-(imidazo[1,2-a]pyridin-7-ylmethyl)benzamide] returned an IC50 of 7.94 nM.

`Cc1cc(C(=O)N2CCC(c3ccc(C(=O)NCc4ccn5ccnc5c4)cc3)CC2)cc(Cl)n1` [Example 932, 4-{1-[(2-chloro-6-methylpyridin-4-yl)carbonyl]piperidin-4-yl}-N-(imidazo[1,2-a]pyridin-7-ylmethyl)benzamide] gave an IC50 of 30.3 nM.

Molecule `CCC1CCCCN1C(=O)C(=O)N1CCC(c2ccc(NC(=O)NCc3ccn4ccnc4c3)cc2)CC1` (stereo not drawn) [Example 1150, 1-(4-{1-[(2-ethylpiperidin-1-yl)(oxo)acetyl]piperidin-4-yl}phenyl)-3-(imidazo[1,2-a]pyridin-7-ylmethyl)urea] returned a 50% inhibitory concentration (IC50) of 64.1 nM.

In the case of `Cc1nn(C)c(C(=O)N2CCC(c3ccc(NC(=O)NCc4ccn5ccnc5c4)cc3)CC2)c1Cl` [Example 1124, 1-(4-{1-[(4-chloro-1,3-dimethyl-1H-pyrazol-5-yl)carbonyl]piperidin-4-yl}phenyl)-3-(imidazo[1,2-a]pyridin-7-ylmethyl)urea], it took 0.344 nM to reach half-maximal inhibition (IC50).

`N#Cc1cc(F)cc(C(=O)N2CCC(c3ccc(C(=O)NCc4ccn5ccnc5c4)cc3)CC2)c1` [Example 996, 4-[1-(3-cyano-5-fluorobenzoyl)piperidin-4-yl]-N-(imidazo[1,2-a]pyridin-7-ylmethyl)benzamide] registered a 50% inhibitory concentration (IC50) of 62 nM.

For `N#Cc1ccc(F)c(C(=O)N2CCC(c3ccc(NC(=O)NCc4ccn5ccnc5c4)cc3)CC2)c1` [Example 1033, 1-{4-[1-(5-cyano-2-fluorobenzoyl)piperidin-4-yl]phenyl}-3-(imidazo[1,2-a]pyridin-7-ylmethyl)urea], the half-inhibitory concentration (IC50) came out at 1.97 nM.

`CC(C)Cn1nccc1-c1ccc(C(=O)NCc2ccn3ccnc3c2)s1` [Example 899, N-(imidazo[1,2-a]pyridin-7-ylmethyl)-5-[1-(2-methylpropyl)-1H-pyrazol-5-yl]thiophene-2-carboxamide] came in with a half-maximal inhibitory concentration (IC50) of 181 nM.

`O=C(NCc1ccn2ccnc2c1)c1ccc(C2CCN(C(=O)c3ccoc3C(F)(F)F)CC2)cc1` [Example 1120, N-(imidazo[1,2-a]pyridin-7-ylmethyl)-4-(1-{[2-(trifluoromethyl)furan-3-yl]carbonyl}piperidin-4-yl)benzamide] returned an IC50 of 2.37 nM.

For the molecule `CC(C)n1ccc(C(=O)N2CCC(c3ccc(NC(=O)NCc4ccn5ccnc5c4)cc3)CC2)n1` [Example 1011, 1-(imidazo[1,2-a]pyridin-7-ylmethyl)-3-[4-(1-{[1-(propan-2-yl)-1H-pyrazol-3-yl]carbonyl}piperidin-4-yl)phenyl]urea], the IC50 came out at 1.97 nM.

As for `COc1ccc(C(=O)N2CCC(c3ccc(NC(=O)NCc4ccn5ccnc5c4)cc3)CC2)c(OC)c1` [Example 944, 1-{4-[1-(2,4-dimethoxybenzoyl)piperidin-4-yl]phenyl}-3-(imidazo[1,2-a]pyridin-7-ylmethyl)urea], half-maximal inhibition (IC50) required 3.36 nM.

The molecule `CC(C)(C)OC(=O)N1CCC(c2ccc(NC(=O)Cc3ccn4ccnc4c3)c(F)c2)CC1` [Example 1067, tert-butyl 4-{3-fluoro-4-[(imidazo[1,2-a]pyridin-7-ylacetyl)amino]phenyl}piperidine-1-carboxylate] showed a half-inhibitory concentration (IC50) of 370 nM.

In turn, `Cn1cc2ccc(C(=O)N3CCC(c4ccc(C(=O)NCc5ccn6ccnc6c5)cc4)CC3)cc2n1` [Example 1118, N-(imidazo[1,2-a]pyridin-7-ylmethyl)-4-{1-[(2-methyl-2H-indazol-6-yl)carbonyl]piperidin-4-yl}benzamide] yielded an IC50 of 4.18 nM.

The molecule `COCCn1nc(C2CC2)cc1-c1ccc(C(=O)NCc2ccn3ccnc3c2)s1` [Example 893, 5-[3-cyclopropyl-1-(2-methoxyethyl)-1H-pyrazol-5-yl]-N-(imidazo[1,2-a]pyridin-7-ylmethyl)thiophene-2-carboxamide] had a concentration for half-maximal inhibition (IC50) of 0.662 nM.

`CC(C)(C)CC(=O)N1CCC(c2ccc(NC(=O)NCc3ccn4ccnc4c3)c(F)c2)CC1` [Example 1071, 1-{4-[1-(3,3-dimethylbutanoyl)piperidin-4-yl]-2-fluorophenyl}-3-(imidazo[1,2-a]pyridin-7-ylmethyl)urea] came in with a half-inhibitory concentration (IC50) of 0.473 nM.

(Values after US9187472B2 (AbbVie Inc., priority 2012, dated 2015).)
